Measured values from US20220096664A1, “STABILIZED FORMULATIONS CONTAINING IODINATED CONTRAST AGENTS AND CYCLODEXTRINS” (Verrow Pharmaceuticals, Inc., priority 2012, published 2022).
Read-outs that look alike come from different tables or passages of the source.

Columns and labels:
[1] = Photostability: iodide formed after visible light irradiation; format: physicochemical; conditions: 10 mM TRIS; for Iodide formed: 50 mM agent, pH 7.4, VIS 72 h
Experimental: (§1) Aqueous solutions comprising iodinated contrast agents were prepared and evaluated in a photolysis chamber as described in the ICH guidance document, Q1B Photostability Testing of New Drug Substances and Products, available from the US Food and Drug Administration, incorporated herein by reference. The solutions were placed in 1 cm×1 cm (3 mL) quartz cuvettes having 2 clear sides and 2 sides etched. Lids were placed on the cuvettes and sealed with a wrap of Parafilm® around the joint. The cuvettes were placed in a photolysis chamber, upright on a flat surface beneath and centered between two horizontal 24 inch fluorescent lamps, (GE, black light F20T12, 20 watt for ultraviolet, or Philips F20T12/CW, 20 watt for visible) placed 6 cm apart. The cuvettes were positioned such that their two clear sides were facing the two lamps.
(§2) Cuvettes were spaced ˜2 cm from each other, and no closer than 15 cm from the ends of the lamps. This positioning allowed reproducible light exposure to all cuvettes.
(§3) The lamps were switched on and the solutions irradiated for 18 to 24 hours for the ultraviolet (UV) lamps or 72 to 90 hours for the visible (VIS) light lamps. At the end of the selected irradiation time, the cuvettes were removed from the photolysis chamber and mixed by inversion 2-times. The caps were then removed and 40 microliter aliquots taken and diluted with 1 mL of an aqueous solution containing ˜0.9 mg/mL sodium thiosulfate. The thiosulfate solution converted any I2, IO3^−, and I3^− present in the solution tor such that total iodine species could be determined in one assay.
(§4) The diluted solutions were assayed by high pressure liquid chromatography (HPLC) using a 4.6×250 mm, C-18, 5 micron particle size, reversed phase column with detection at 280 nm for the contrast agent and 230 nm for the thiosulfate and the iodide ion (r). A mobile phase of 30:70 methanol:aqueous buffer (50 mM KH2PO4+7 mL/L 40% tetrabutyl ammonium hydroxide) at 0.75 mL/min was used for elution. Injection volume was 20 microliters. External standards were prepared containing each contrast agent, potassium iodide, and sodium thiosulfate solution and analyzed along with the irradiated samples. The results were reported as weight percentage iodide formed (mg iodide/mg contrast agent times 100).
(§5) The absorbance readings at 400 nm due to light exposure were plotted against time of exposure and the resulting correlation used to determine the UV and VIS light exposure. A change in absorbance reading of 0.45 was assumed equivalent to 200 watt hours/square meter for the UV light and a change of 0.51 was assumed equivalent to 1.2 million lux hours for the VIS light. The UV lamps provided 6.62 watts/square meter and the VIS lamps provided 7180 lux.
Aqueous solutions were prepared containing 473 mM iohexol (180 mg 1/mL), 10 mM tromethamine HCl buffer (TRIS), with and without various SCDs. The pH of the solutions was adjusted to 7.4 with 0.1N hydrochloric acid. Aliquots of the solutions were irradiated with ultraviolet (UV) light for 18 hours (119 watt hours/m^2) and other aliquots irradiated with visible (VIS) light for 90 hours (0.65 million lux hours). The solutions were then processed, analyzed and reported as in Example 2, with the exception that the iohexol peak was measured at 300 nm for both samples and standards. Results of the study are presented in the table below along with the SCD used. The SCDs included derivatives prepared from alpha, beta, and gamma CD to evaluate the effect of CD cavity size. Various substituents, including one derivative containing more than one type of substituent, and degrees of substitution (DS) were also evaluated.
Aqueous solutions were prepared containing 50 mM iodinated contrast agent, 10 mM tromethamine HCl buffer (TRIS), with and without sulfobutylether beta-cyclodextrin with an average degree of substitution-7 (SBE7-β-CD), or 2-hydroxypropyl beta-cyclodextrin with an average degree of substitution of ˜6.3 (HP6.3-β-CD) or ˜4.3 (HP4.3-β-CD). […]

[2] = Photostability: iodide formed after UV light irradiation; format: physicochemical; conditions: 473 mM iohexol, 10 mM TRIS, pH 7.4, UV 18 h
Experimental: as §1, §2, §3, §4, §5
Aqueous solutions were prepared containing 50 mM contrast agent by diluting commercially available solutions with water. Tromethamine HCl buffer (TRIS), was added to solutions as necessary to increase the TRIS content to that of the commercial product before dilution.
SCD was added to the solutions at various mole ratios and the pH of the solutions adjusted to 7.4 with 0.1N hydrochloric acid or 0.1N sodium hydroxide. The solutions were irradiated with UV light for 18 hours (119 watt hours/m^2) then processed, analyzed and reported as in Example 2. The SCDs evaluated were sulfobutyl ether beta-cyclodextrin with an average degree of substitution of 7 (SBE-704CD), and two 2-hydroxypropyl beta-cyclodextrin derivatives having 6.3 (HP-6.3n/CD) and 4.3 (HP-4.3-βCD) average degrees of substitution.
Aqueous solutions were prepared containing 50 mM contrast agent by diluting commercially available solutions with distilled water. Tromethamine HCl buffer (TRIS), was added to some solutions to increase the buffer content.
The solutions were divided and SBE-7-CD added to one aliquot at a contrast agent:SCD mole ratio of 1:1. The pH of the solutions was adjusted to 5, 6, 7, 7.4 or 8 with 0.1N hydrochloric acid or sodium hydroxide. […]

[3] = format: physicochemical; conditions: for Iodide formed: 50 mM agent, 10 mM TRIS
Experimental: as §3, §4
(§6) Aqueous solutions were prepared containing 50 mM iodinated contrast agent, 10 mM tromethamine HCl buffer (TRIS), with and without sulfobutylether beta-cyclodextrin with an average degree of substitution-7 (SBE7-β-CD), or 2-hydroxypropyl beta-cyclodextrin with an average degree of substitution of ˜6.3 (HP6.3-β-CD) or ˜4.3 (HP4.3-β-CD). The iohexol solution was prepared by dissolving solid iohexol powder while the other solutions were prepared by diluting commercial formulated products and adding sufficient TRIS buffer to reach 10 mM. The pH of the solutions was adjusted to 7.4 with 0.1N hydrochloric acid.
(§7) Aliquots of the solutions were irradiated with visible light for 72 hours (0.52 million lux hours). Other aliquots were autoclaved for 20 minutes at 121° C., cooled to room temperature and then irradiated with ultraviolet light for 18 hours (119 watt hours/m2). The solutions were then processed, analyzed and reported as in Example 2, except that the chromatographic peaks of the contrast agents were evaluated at 300 nm for both samples and standards.
Aqueous solutions were prepared containing 50 mM iohexol, 0, 2.5, 5, 7.5, or 10 mM tromethamine HCl (TRIS) buffer, with and without 2.5 mM sulfobutylether beta-cyclodextrin with an average degree of substitution-7 (SBE7-β-CD). The pH of the solutions was adjusted to 7.4 with 0.1N hydrochloric acid and the solutions were transferred to glass vials. The vials were stoppered, crimp-capped and autoclaved for 20 minutes at 121° C. The pH of the autoclaved solutions was measured after the solutions were at room temperature.
Aliquots of the autoclaved solutions were irradiated with visible light for 72 hours (0.52 million lux hours) and other aliquots irradiated with ultraviolet light for 18 hours (119 watt hours/m2). The solutions were then processed, analyzed and reported as in Example 2, except that the chromatographic peak of the iohexol was evaluated at 300 nm for both samples and standards.
Aqueous formulations were prepared containing iodinated contrast agents at concentrations used commercially in medical procedures. Sulfobutylether-cyclodextrin, sodium salt, average degree of substitution ˜7 (SBE7CD) was added at varying agent:CD mole ratios. The formulations were placed in glass vials, sealed with rubber stoppers and aluminum crimps, and autoclaved at 121° C. for 20 minutes. […]

[4] = format: physicochemical
Experimental: as §3, §4, §6
as §7, with “standards. […]” for “standards.”
Aqueous formulations were prepared containing iodinated contrast agents at concentrations used commercially in medical procedures. Sulfobutylether-cyclodextrin, sodium salt, average degree of substitution ˜7 (SBE7CD) was added at varying agent:CD mole ratios. The formulations were placed in glass vials, sealed with rubber stoppers and aluminum crimps, and autoclaved at 121° C. for 20 minutes. Aliquots of the autoclaved solutions were exposed to UV light for 24 hours (159 watt hours/m^2 or VIS light for 72 hours (0.52 million lux hours) as in Example 2. The solutions were then processed, analyzed and reported as in Example 2, with the following two exceptions; 1) the chromatographic peaks of the contrast agents were evaluated at 300 nm for both samples and standards, and 2) only 20 microliter sample aliquots were taken and diluted for HPLC analysis due to the higher concentrations used in this study. Results of the study are presented in the table below along with the solution compositions.

[5] = contrast media solutions; cited from earlier work
[6] = pH 7.4, autoclaved then UV 18 h, agent:SBE7-β-CD 1:0.1
[7] = pH 7.4, autoclaved then UV 18 h, no SCD (1:0)

## sulfobutylether 3.5-ethylether 3.5-beta-cyclodextrin [SBE-EE-βCD]
[1]; 473 mM iohexol, pH 7.4, VIS 90 h, iohexol:SCD 1:0.05
  I- formed, VIS: 0.0584 wt %
[1]; 473 mM iohexol, pH 7.4, VIS 90 h, iohexol:SCD 1:0.05 vs control
  % Change in iodide degradants (Vis): −5.3% (Vis)
[2]; iohexol:SCD 1:0.05
  I- formed, UV: 0.0825 wt %
[2]; iohexol:SCD 1:0.05 vs control
  % Change in iodide degradants (UV): −22.9% (UV)

## CNC(=O)c1c(I)c(C(=O)NCC(=O)Nc2c(I)c(C(=O)O)c(I)c(C(=O)NCCO)c2I)c(I)c(N(C)C(C)=O)c1I [Ioxaglate, ioxaglate]
[3]; [6]
  Iodide formed: 0.332 wt %
[3]; [7]
  Iodide formed: 0.392 wt %
[3]; Ioxaglate 320 mg I/mL, pH 7.0, agent:SBE7CD 1:0.05, autoclaved then UV 24 h
  Iodide Formed, UV: 0.0845 wt %
[3]; Ioxaglate 320 mg I/mL, pH 7.0, agent:SBE7CD 1:0.05, autoclaved then VIS 72 h
  Iodide Formed, VIS: 0.0175 wt %
[3]; Ioxaglate 320 mg I/mL, pH 7.0, no SCD (1:0), autoclaved then UV 24 h
  Iodide Formed, UV: 0.114 wt %
[3]; Ioxaglate 320 mg I/mL, pH 7.0, no SCD (1:0), autoclaved then VIS 72 h
  Iodide Formed, VIS: 0.0197 wt %
[1]; agent:SBE7-β-CD 1:0.1
  Iodide formed: 0.211 wt %
[1]; no SCD (1:0)
  Iodide formed: 0.231 wt %
[4]; Ioxaglate 320 mg I/mL (393 mg ioxaglate meglumine and 196 mg ioxaglate sodium), pH 7.0, no SCD (1:0)
  Iodide Formed, Autoclaved: 0.00457 wt %
[4]; Ioxaglate 320 mg I/mL, pH 7.0, agent:SBE7CD 1:0.05
  Iodide Formed, Autoclaved: 0.00329 wt %

## CNC(=O)c1c(I)c(NC(C)=O)c(I)c(C(=O)O)c1I [iothalamate sodium]
[5]
  degradation in solution after exposure to ultraviolet light: formation of iodine and iodide ions

## C[C@H](O)C(=O)Nc1c(I)c(C(=O)NC(CO)CO)c(I)c(C(=O)NC(CO)CO)c1I [Iopamidol, iopamidol]
[3]
  stabilization against degradation from autoclaving+visible light irradiation: stabilized all formulations except iopamidol
[3]; [6]
  Iodide formed: 0.470 wt %
[3]; [7]
  Iodide formed: 0.540 wt %
[3]; pH 7.4, autoclaved then visible light, agent:SBE7-β-CD 1:0.1
  Iodide formed: 0.344 wt %
[3]; pH 7.4, autoclaved then visible light, no SCD (1:0)
  Iodide formed: 0.348 wt %
[3]; Iopamidol 200 mg I/mL, pH 7, agent:SBE7CD 1:0.05, autoclaved then UV 24 h
  Iodide Formed, UV: 0.145 wt %
[3]; Iopamidol 200 mg I/mL, pH 7, agent:SBE7CD 1:0.05, autoclaved then VIS 72 h
  Iodide Formed, VIS: 0.0574 wt %
[3]; Iopamidol 200 mg I/mL, pH 7, no SCD (1:0), autoclaved then UV 24 h
  Iodide Formed, UV: 0.150 wt %
[3]; Iopamidol 200 mg I/mL, pH 7, no SCD (1:0), autoclaved then VIS 72 h
  Iodide Formed, VIS: 0.0570 wt %
[1]; agent:SBE7-β-CD 1:0.1
  Iodide formed: 0.355 wt %
[1]; no SCD (1:0)
  Iodide formed: 0.356 wt %
[4]; Iopamidol 200 mg I/mL, pH 7, agent:SBE7CD 1:0.05
  Iodide Formed, Autoclaved: 0.00338 wt %
[4]; Iopamidol 200 mg I/mL, pH 7, no SCD (1:0)
  Iodide Formed, Autoclaved: 0.00347 wt %
